The test relates to ASPS-1 complex tumor spheroids, viability. The test is described as follows: Anticancer human tumor ASPS-1 cell line growth inhibition.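 For all read-outs here: spheroids exposed to agents for 7 days after 3 days of growth.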 The following applies: for viability, T/C: stronger effect = lower value. Summed up:
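Complex spheroids of malignant cells with endothelial cells and mesenchymal stem cells; agents alone or combined, from near clinical Cmax (or 10 microM if unknown) down in half-log steps, 0.25% DMSO final.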

Several values for one entry are separate records, joined by “and”; a condition that tells them apart may be missing. Equal values may be shown once.

Take `CC1COCCN1c1cc(-c2ccnn2C)c2ccnc(-c3ccn[nH]3)c2n1` (stereo not drawn) + Cn1nnc2c(C(N)=O)ncn2c1=O: the half-inhibitory concentration (IC50) runs as follows: (curve of first compound, second compound 1 µM) 224 nM; (curve of first compound, second compound 3.16 µM) less than 31.6 nM; (curve of first compound, second compound 10 µM) less than 31.6 nM; (curve of first compound, second compound 31.6 µM) less than 31.6 nM; (curve of first compound, second compound 100 µM) less than 31.6 nM. The viability, T/C was 72.3% (second compound 1 µM, first compound 0.0316 µM); 59.2% (second compound 1 µM, first compound 0.1 µM); 46.6% (second compound 1 µM, first compound 0.316 µM); 41.1% (second compound 1 µM, first compound 1 µM); 46.1% (second compound 1 µM, first compound 3.16 µM); 43.9% (second compound 1 µM, first compound 10 µM). The viability, T/C is 38.5% (second compound 3.16 µM, first compound 0.0316 µM); 44% (second compound 3.16 µM, first compound 0.1 µM); 42.2% (second compound 3.16 µM, first compound 0.316 µM); 41.6% (second compound 3.16 µM, first compound 1 µM); 43% (second compound 3.16 µM, first compound 3.16 µM); 50.2% (second compound 3.16 µM, first compound 10 µM). The viability, T/C is 42.4% (second compound 10 µM, first compound 0.0316 µM); 39.4% (second compound 10 µM, first compound 0.1 µM); 35.5% (second compound 10 µM, first compound 0.316 µM); 38.1% (second compound 10 µM, first compound 1 µM); 42.5% (second compound 10 µM, first compound 3.16 µM); 52.4% (second compound 10 µM, first compound 10 µM). The viability, T/C by setting is: (second compound 31.6 µM, first compound 0.0316 µM) 37.6%; (second compound 31.6 µM, first compound 0.1 µM) 31.1%; (second compound 31.6 µM, first compound 0.316 µM) 31.7%; (second compound 31.6 µM, first compound 1 µM) 32.6%; (second compound 31.6 µM, first compound 3.16 µM) 42.2%; (second compound 31.6 µM, first compound 10 µM) 48.3%. The viability, T/C (second compound 100 µM, first compound 0.0316 µM) was 24.9%; the viability, T/C (second compound 100 µM, first compound 0.1 µM) was 22.5%; the viability, T/C (second compound 100 µM, first compound 0.316 µM) is 20.4%; the viability, T/C (second compound 100 µM, first compound 1 µM) is 23.6%; the viability, T/C (second compound 100 µM, first compound 3.16 µM) was 29.6%; the viability, T/C (second compound 100 µM, first compound 10 µM) is 42%.
Turning to `COc1cc2c(cc1O)CCNC21CSC2c3c(OC(C)=O)c(C)c4c(c3C(COC1=O)N1C(O)C3Cc5cc(C)c(OC)c(O)c5C(C21)N3C)OCO4` (stereo not drawn), the viability, T/C (compound 30 pM) was 103% [middle of 10 runs]; the viability, T/C (compound 94.9 pM) was 103% [middle of 10 runs]; the viability, T/C (compound 0.0003 µM) is 92.7% [middle of 10 runs]; the viability, T/C (compound 0.000949 µM) is 71.9% [middle of 10 runs]; the viability, T/C (compound 0.003 µM) was 23% [middle of 10 runs]. Besides, the 50% inhibitory concentration (IC50) (compound alone, run of 12/16/2019) is 1.63 nM [middle of 10 runs].
Consider `Cc1sc2c(c1C)C(c1ccc(Cl)cc1)=NC(CC(=O)Nc1ccc(O)cc1)c1nnc(C)n1-2` (stereo not drawn) + COc1cc2c(cc1O)CCNC21CSC2c3c(OC(C)=O)c(C)c4c(c3C(COC1=O)N1C(O)C3Cc5cc(C)c(OC)c(O)c5C(C21)N3C)OCO4, for which the half-inhibitory concentration (IC50) was greater than 3000 nM (curve of first compound, second compound 30 pM); greater than 3000 nM (curve of first compound, second compound 94.9 pM); greater than 3000 nM (curve of first compound, second compound 0.0003 µM); 772 nM (curve of first compound, second compound 0.000949 µM); less than 9.49 nM (curve of first compound, second compound 0.003 µM). The viability, T/C runs as follows: (second compound 30 pM, first compound 0.00949 µM) 109%; (second compound 30 pM, first compound 0.03 µM) 112%; (second compound 30 pM, first compound 0.0949 µM) 113%; (second compound 30 pM, first compound 0.3 µM) 103%; (second compound 30 pM, first compound 0.949 µM) 94%; (second compound 30 pM, first compound 3 µM) 83%. The viability, T/C was 106% (second compound 94.9 pM, first compound 0.00949 µM); 107% (second compound 94.9 pM, first compound 0.03 µM); 109% (second compound 94.9 pM, first compound 0.0949 µM); 103% (second compound 94.9 pM, first compound 0.3 µM); 93.4% (second compound 94.9 pM, first compound 0.949 µM); 70.2% (second compound 94.9 pM, first compound 3 µM). Besides, the viability, T/C reads like this: (second compound 0.0003 µM, first compound 0.00949 µM) 102%; (second compound 0.0003 µM, first compound 0.03 µM) 110%; (second compound 0.0003 µM, first compound 0.0949 µM) 103%; (second compound 0.0003 µM, first compound 0.3 µM) 97.1%; (second compound 0.0003 µM, first compound 0.949 µM) 85.2%; (second compound 0.0003 µM, first compound 3 µM) 72.4%. Further, the viability, T/C was 81.6% (second compound 0.000949 µM, first compound 0.00949 µM); 94.7% (second compound 0.000949 µM, first compound 0.03 µM); 88.7% (second compound 0.000949 µM, first compound 0.0949 µM); 76.9% (second compound 0.000949 µM, first compound 0.3 µM); 44.3% (second compound 0.000949 µM, first compound 0.949 µM); 26.3% (second compound 0.000949 µM, first compound 3 µM). For the same molecule, the viability, T/C is 24.1% (second compound 0.003 µM, first compound 0.00949 µM); 24.6% (second compound 0.003 µM, first compound 0.03 µM); 29.2% (second compound 0.003 µM, first compound 0.0949 µM); 20.9% (second compound 0.003 µM, first compound 0.3 µM); 9.4% (second compound 0.003 µM, first compound 0.949 µM); 1.27% (second compound 0.003 µM, first compound 3 µM).
For `Cc1sc2c(c1C)C(c1ccc(Cl)cc1)=NC(CC(=O)Nc1ccc(O)cc1)c1nnc(C)n1-2` (stereo not drawn), the viability, T/C is 102% and 110% and 107% (compound 0.00949 µM); 103% and 111% and 108% (compound 0.03 µM); 103% and 111% and 109% (compound 0.0949 µM); 108% and 105% and 100% (compound 0.3 µM); 97.8% and 101% and 94.3% (compound 0.949 µM); 90.6% and 87.9% and 83.7% (compound 3 µM). In addition, the IC50 (curve of compound) was greater than 3000 nM.

As usually defined, the IC50 is the concentration needed to halve the response being measured. As usually defined, the viability, T/C is the result in the treated group divided by that in the control group, in per cent.

Values taken from PubChem BioAssay AID1845200 (Molecular Pharmacology Branch, DTP, NCI, 2023).
